Measured values taken from PubChem BioAssay (NCI).
Converted amounts (≈) assume the structure as drawn. “And” between values parts separate entries of the source, which are not always exact repeats. Equal entries are not always repeated.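 Compound exposure: 48 hours, 5 concentrations, 96-well plates. GI50 marks 50% less growth. TGI: total growth inhibition.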

What was measured:
Assay in all cases: growth of human tumour cells (NCI), 48 h
DLD-1 colon = system: DLD-1 colon
SN12C renal = system: SN12C renal
HOP-62 NSCLC = system: HOP-62 NSCLC
OVCAR-8 ovarian = system: OVCAR-8 ovarian
U251 CNS = system: U251 CNS
OVCAR-3 ovarian = system: OVCAR-3 ovarian
DMS 114 small cell lung = system: DMS 114 small cell lung
LOX IMVI melanoma = system: LOX IMVI melanoma
HCT-15 colon = system: HCT-15 colon
PC-3 prostate = system: PC-3 prostate

SMILES	TGI (DLD-1 colon) [µM]	TGI (SN12C renal)	TGI (HOP-62 NSCLC)	TGI (OVCAR-8 ovarian)	TGI (U251 CNS)	TGI (OVCAR-3 ovarian)	TGI (DMS 114 small cell lung)	TGI (LOX IMVI melanoma)	TGI (HCT-15 colon) [µM]	TGI (PC-3 prostate) [µM]	GI50 (DLD-1 colon)	GI50 (SN12C renal) [ng/mL]	GI50 (OVCAR-8 ovarian) [ng/mL]	GI50 (U251 CNS) [ng/mL]	GI50 (OVCAR-3 ovarian) [ng/mL]	GI50 (DMS 114 small cell lung) [ng/mL]	GI50 (HCT-15 colon)	GI50 (LOX IMVI melanoma) [ng/mL]
CN(C(=O)C12C3C4C1C1C2C3C41C#N)C(C)(C)C (stereo unspecified)	> 100	> 100 µM	> 100 µM	> 100 µM	> 100 µM	> 100 µM	> 100 µM	> 100 µM										
CSCSCC(CO)NC(=O)/C=C/c1c(C)[nH]c(=O)[nH]c1=O (stereo unspecified)	> 100	> 100 µM		> 100 µM	> 100 µM	> 100 µM	> 100 µM	> 100 µM	> 100									
CCOC(=O)C(=O)CC(=O)C(Br)C(Br)c1ccc(Cl)cc1 (stereo unspecified)	43.1	> 100 µM	> 100 µM	> 100 µM		87.8 µM	> 100 µM	78.1 µM	> 100									
Cc1nc2ccccc2c(=O)n1/N=C(\N=Nc1cc(Cl)ccc1Cl)c1ccc(N(C)C)cc1	> 100	> 100 µM	83 µM	> 100 µM	> 100 µM		93.6 µM	> 100 µM	> 100									
CCNC(=O)O/N=C1\CCC2[C@@H]3CC=C4C[C@@H](OC(=O)NCC)CC[C@]4(C)C3CC[C@]12C (stereo partly specified)	> 100	11.9 µM	> 100 µM	18.2 µM	9.6 µM	12.6 µM	1.82 µM	4.64 µM	12.5									
C(=C\c1ccc2ccccc2c1Nc1ccccc1)/c1ccccc1	> 100	> 100 µM	62.5 µM	81.1 µM	> 64.1 µM	60.4 µM	> 100 µM	> 100 µM	> 100									
CCn1c(=O)nc2n(-c3ccc(SC)cc3)c3ccccc3nc-2c1=O	> 100	> 100 µM	> 100 µM	> 100 µM	> 100 µM	> 100 µM	> 100 µM		> 100									
O=C(CC1(O)C(=O)Nc2ccccc21)c1cccc(O)c1 (stereo unspecified)	> 100	> 100 µM	> 100 µM	> 100 µM		> 100 µM	> 100 µM	> 100 µM	> 100									
Nc1nc(N)c(CCCCc2ccc([N+](=O)[O-])cc2)c(N)n1	> 100	> 100 µM	> 100 µM	> 100 µM	> 100 µM	> 100 µM	> 100 µM	> 100 µM	> 100	> 100								
COc1cc(O)c(C(=O)C2Cc3ccccc32)c(OC)c1 (stereo unspecified)	> 100	> 100 µM	> 100 µM	> 100 µM	> 100 µM		97.2 µM	> 100 µM	> 100									
CCOC(=O)C(Oc1ccc(OC)c2c1C(=O)CCC2)c1ccccc1 (stereo unspecified)	> 100	> 100 µM	> 100 µM	> 100 µM	> 100 µM	> 100 µM	> 100 µM	> 100 µM	> 100									
C#Cc1c(C)c(/C=C/C(C)=C\C(=O)OC)n(C)c1C	> 100	> 100 µM	> 100 µM	> 100 µM	> 100 µM	> 100 µM	> 100 µM	> 100 µM	> 100									
Cc1ccccc1NC(=O)C(=O)C(C(=O)c1ccccc1F)C1OC(=O)c2ccccc21 (stereo unspecified)	57.7	71.2 µM	44.4 µM		60.6 µM	95 µM	53.3 µM	33.6 µM	79.5									
N#Cc1c(N)oc2cc3c(C#N)c(N)oc3cc12	> 100	> 100 µM	> 100 µM	> 100 µM	> 100 µM	> 100 µM	> 100 µM	> 100 µM	> 100									
O=C1N(c2ccc(Cl)cc2)C(=O)C2(SC=NN2Cc2ccccc2)N1c1ccc(Cl)cc1 (stereo unspecified)	> 100	> 100 µM	> 100 µM	> 100 µM	> 100 µM	> 100 µM	> 100 µM	> 100 µM										
CC(=O)OC1(C(C)=O)CC2(c3ccccc3)OC1(c1ccccc1)c1ccccc12 (stereo unspecified)	> 100	> 100 µM	61.5 µM	> 100 µM	> 100 µM	> 100 µM	12.5 µM	> 100 µM	> 100									
COc1cccc(NC(=O)/C(CS(=O)(=O)CCC(C(C)=O)C(C)=O)=N\NC(C)(C)C)c1	> 100	> 100 µM	> 100 µM	> 100 µM	> 100 µM	> 100 µM	> 100 µM	> 100 µM	> 100									
COc1cc2c(cc1O)CCN[C@@]21CS[C@H]2c3c(OC(C)=O)c(C)c4c(c3C(COC1=O)N1C2C2NC(Cc3cc(C)c(OC)c(O)c32)[C@@H]1O)OCO4 (stereo partly specified)		4.8 ng/mL	< 10 nM and 3.8e-07 µg/mL and 0.0045 µg/mL	< 10 nM and 0.472 µg/mL	< 10 nM and 0.28 µg/mL	0.00531 ng/mL	4.5 ng/mL	1970 ng/mL		< 0.01	0.000365 ng/mL and 4.5 ng/mL	4.5 (≈ 6.02 nM)	4.5 (≈ 6.02 nM)	4.5 (≈ 6.02 nM)	0.000341 (≈ 0.000455 nM)	4.5 (≈ 6.02 nM)	0.00461 ng/mL and 4.5 ng/mL	4.5 (≈ 6.02 nM)
CCCCCCNC(=O)CCN(C(=O)O)S(=O)(=O)c1ccc(NC(=O)c2ccccc2)cc1	43.2	> 100 µM	> 100 µM	> 100 µM	42.3 µM	> 100 µM	> 53.1 µM	> 62.2 µM	> 58.4									
Nc1ncc(CN2CCCC2)c(-c2ccccc2O)n1	> 750	> 750 µM	> 750 µM	> 750 µM	> 750 µM	> 750 µM	> 750 µM	> 750 µM	> 750									
NN=C1/C(=C\c2ccccc2)CCC/C1=C/c1ccccc1	> 100	> 100 µM	> 100 µM	> 100 µM	> 100 µM	> 100 µM	75.1 µM	54.3 µM	> 100									
NC1(C(=O)O)CCC(C(=O)O)CC1 (stereo unspecified)	> 100	> 100 µM	> 100 µM	> 100 µM	> 100 µM	> 100 µM	> 100 µM	> 100 µM										
